Experimental data from patent US5010064A, “Inclusion complexes of dipyridamole with cyclodextrins” (Edmond Pharma s.r.l., priority 1987, dated 1991).

Experiments:
[1] = system: platelet aggregation (ADP-induced) in platelet rich plasma of rabbits; test: platelet aggregation inhibiting activity ex vivo; type: in vivo, New Zealand rabbit
Description: The platelet rich plasma (PRP) has been separated by centrifugation for 10 minutes and has been suitable diluted to have always 250,000-300,000 platelet/mm^3 with plasma free of platelets (obtained from blood samples by further centrifugation for 10 minutes at 3200 rpm.
The platelet aggregation has been measured by the turbidimetric method under continuous stirring at 37° C., after having added ADP (Adenosine diphosphate to PRP (1.5 μg/ml).

[2] = pH higher than 5.5-6; cited from earlier work
[3] = dog, oral, 75 mg active ingredient; 0 min
Description: Studies have been carried out on Beagle dogs (male and female; body weight 10-11 kg) following an experimental scheme in "cross over".
The blood has been collected in the presence of eparine (10 U.I./ml) and the plasma, separated by centrifugation, has been immediately frozen and stored at -20° C. until extraction. After about 10-20 days of storage, 0.2 ml of plasma has been drawn from each sample and mixed for 15 seconds with 0.5 ml of NaOH 1N. Thereafter, 4 ml of terbutylmethylether have been added and the whole has been stirred for 1 minute. In order to separate the aqueous phase from the organic phase the whole has been centrifuged for 5 minutes. The organic phase has been then removed and dried to dryness under nitrogen stream. […] An excitation wave length of 285 nm has been chosen in connection with an emission filter of 470 nm.

[4] = in vivo; conditions: dog, plasma, po, 75 mg
[5] = cited from earlier work

## OCCN(CCO)c1nc(N2CCCCC2)c2nc(N(CCO)CCO)nc(N3CCCCC3)c2n1 [dipyridamole, 2,2',2",2"'-(4,8-dipiperidinopyrimido/5,4,d/-pyrimidine-2,6-diyldinitrilo)tetraethanol]
[1]; 10 mg/kg os, 0 hr
  % platelet aggregation: 83 ± 3.0%
[1]; 10 mg/kg os, 0.5 hr
  % platelet aggregation: 63 ± 3.7%
[1]; 10 mg/kg os, 1 hr
  % platelet aggregation: 44 ± 3.2%
[1]; 10 mg/kg os, 2 hr
  % platelet aggregation: 40 ± 2.9%
[1]; 10 mg/kg os, 4 hr
  % platelet aggregation: 49 ± 2.7%
[1]; 20 mg/kg os, 0 hr
  % platelet aggregation: 87 ± 3.2%
[1]; 20 mg/kg os, 0.5 hr
  % platelet aggregation: 58 ± 5.9%
[1]; 20 mg/kg os, 1 hr
  % platelet aggregation: 29 ± 4.1%
[1]; 20 mg/kg os, 2 hr
  % platelet aggregation: 27 ± 3.8%
[1]; 20 mg/kg os, 4 hr
  % platelet aggregation: 38 ± 3.9%
[2]
  solubility in water: poor soluble in water
[3]
  average plasma concentration of dipyridamole: 0
[4]
  concentration at 10 min: 8 ng/mL
  concentration at 20 min: 24 ng/mL
  concentration at 0.5 h: 784 ng/mL
  concentration at 0.75 h: 1620 ng/mL
  concentration at 1 h: 2840 ng/mL
  concentration at 1.5 h: 3960 ng/mL
  concentration at 2 h: 4710 ng/mL
  concentration at 2.5 h: 4730 ng/mL
  concentration at 3 h: 2930 ng/mL
  concentration at 4 h: 1970 ng/mL
  concentration at 5 h: 1290 ng/mL
  concentration at 6 h: 628 ng/mL
  concentration at 7 h: 360 ng/mL
[5]; in vivo
  blood level at which not pharmacologically active: 0.5-1 γ/ml
  blood level with undesired side effects (cephalea and nausea): 2000 to 2500 ng/mL
[5]; in words
  adsorption: not well adsorbed
  variability of blood levels between and within subjects: blood levels different from one to another subject and for repeated administrations in the same subject
[5]; man
  blood level needed to be active as platelet aggregation inhibiting agent: higher than 1 mcg/ml
  upper blood level (might show side effects such as cephalea and nausea): 2.0 to 2.5 µg/mL
